Like-named read-outs stand apart in the source and are kept apart here.
Experiments:
[1] = tested on: Human promyelocytic leukemic cell (HL-60); test: Cytotoxicity, HL-60; type: cell-based
Text: (§1) | cell growth by 50% (IC50) in μM.

[2] = tested on: Human acute lymphoblastic T cells (CCRF-CEM); test: Cytotoxicity, CCRF-CEM; type: cell-based; conditions: for IC50 / IC90: Homo sapiens, CCRF-CEM; for IC90: read-out: Cytotoxic Concentration IC90
Text: as §1

[3] = tested on: CCRF-CEM/VBL cells; test: Cytotoxicity, CCRF-CEM resistant to vinblastine; type: cell-based, human; conditions: for IC50 / IC90: Homo sapiens, CCRF-CEM; for IC90: read-out: Cytotoxic Concentration IC90
Text: as §1

[4] = tested on: CCRF-CEM/VM-1 cells; test: Cytotoxicity, CCRF-CEM/VM-1; type: cell-based, human; conditions: for IC50 / IC90: Homo sapiens, CCRF-CEM; for IC90: read-out: Cytotoxic Concentration IC90
Text: as §1

[5] = tested on: Human breast adenocarcinoma cells (SK-Br-3); test: Cytotoxicity, SK-Br-3; type: cell-based
Text: as §1

[6] = tested on: Human testicular teratocarcinoma cells (833K); test: Cytotoxicity, 833K; type: cell-based
Text: as §1

[7] = tested on: Chinese hamster lung cells (DC-3F); test: Cytotoxicity, DC-3F; type: cell-based; conditions: for IC50 / IC90: Cricetulus griseus, DC3F; for IC90: read-out: Cytotoxic Concentration IC90
Text: as §1

[8] = tested on: Chinese hamster lung cells resistant to actinomycin D (DC-3F/ADII); test: Cytotoxicity, DC-3F/ADII; type: cell-based; conditions: for IC50 / IC90: Cricetulus griseus, DC3F; for IC90: read-out: Cytotoxic Concentration IC90
Text: as §1

[9] = tested on: MT2 cells; test: Cytotoxicity, MT2; type: cell-based; conditions: Table 15, MT2
[10] = Table 14, vinblastine-resistant (VLB100)
[11] = Table 3, CCRF-CEM/VBL, EQI-6 = (1)
[12] = Table 3, CCRF-CEM/VM-1, EQI-6 = (1)
[13] = Table 4, DC-3F/ADII, EQI-6 = (1)

With `COc1cc(NS(C)(=O)=O)ccc1Nc1c2ccccc2nc2ccccc12` [m-AMSA, 4'-(9-acridinylamino)methanesulfon-m-anisidide] the IC50 ([1]; Homo sapiens, HL-60, Table 1, HL-60, read-out: IC50) was 38.8 nM, the IC50 ([1]; Homo sapiens, HL-60, Table 2, HL60, read-out: concentration required to inhibit cell growth by 50% (IC50)) was 39 nM and the IC50 ([1]; Homo sapiens, HL-60, Table 3, HL-60, read-out: Cytotoxic Concentration IC50) was 38.8 nM. The IC90 ([1]; Homo sapiens, HL-60, Table 3, HL-60, read-out: Cytotoxic Concentration IC90) was 176 nM, the “Cytotoxic Concentration IC95” value ([1]; Table 3, HL-60) was 294 nM and the “ratio of IC50 to EQI-6 (in parentheses)” value ([1]; Table 3, HL-60, EQI-6 = (1)) was 66.9 ×. The “ratio of IC90 to EQI-6 (in parentheses)” value ([1]; Table 3, HL-60, EQI-6 = (1)) was 67.7 ×, the “ratio of IC95 to EQI-6 (in parentheses)” value ([1]; Table 3, HL-60, EQI-6 = (1)) was 66.8 × and the IC50 ([2]; Table 1, CCRF-CEM, read-out: IC50) was 199 nM. The IC50 ([2]; Table 2, CCRF/CEM, read-out: concentration required to inhibit cell growth by 50% (IC50)) was 199 nM, the IC50 ([2]; Table 3, CCRF-CEM, read-out: Cytotoxic Concentration IC50) was 199 nM and the IC90 ([2]; Table 3, CCRF-CEM) was 1540 nM. The IC50 ([2]; Table 14, CCRF-CEM, read-out: Cytotoxic Concentration IC50) was 129 nM, the IC90 ([2]; Table 14, CCRF-CEM) was 755 nM and the “Cytotoxic Concentration IC95” value ([2]; Table 3, CCRF-CEM) was 3101 nM. The “ratio of IC50 to EQI-6 (in parentheses)” value ([2]; Table 3, CCRF-CEM, EQI-6 = (1)) was 398 ×, the “ratio of IC90 to EQI-6 (in parentheses)” value ([2]; Table 3, CCRF-CEM, EQI-6 = (1)) was 702 × and the “ratio of IC95 to EQI-6 (in parentheses)” value ([2]; Table 3, CCRF-CEM, EQI-6 = (1)) was 838 ×. For the same compound, the “Cytotoxic Concentration IC95” value ([2]; Table 14, CCRF-CEM) was 1378 nM, the IC50 ([3]; Table 2, CCRF/VBL (MDR/pg-p), read-out: concentration required to inhibit cell growth by 50% (IC50)) was 565 nM and the IC50 ([3]; Table 3, CCRF-CEM/VBL, read-out: Cytotoxic Concentration IC50) was 565 nM. The IC90 ([3]; Table 3, CCRF-CEM/VBL) was 2460 nM, the IC50 ([3]; Table 14, vinblastine-resistant (VLB100), read-out: Cytotoxic Concentration IC50) was 964 nM and the IC90 [3, 10] was 7230 nM. The “Cytotoxic Concentration IC95” value ([3]; Table 3, CCRF-CEM/VBL) was 4045 nM, the “ratio of IC50 to EQI-6 (in parentheses)” value [3, 11] was 298.9 × and the “ratio of IC90 to EQI-6 (in parentheses)” value [3, 11] was 396 ×. For the same compound, the “ratio of IC95 to EQI-6 (in parentheses)” value [3, 11] was 434.9 ×, the “Cytotoxic Concentration IC95” value [3, 10] was 14353 nM and the IC50 ([4]; Table 2, CCRF/VM-1 (MDR/TopoII), read-out: concentration required to inhibit cell growth by 50% (IC50)) was 1710 nM. For the same compound, the IC50 ([4]; Table 3, CCRF-CEM/VM-1, read-out: Cytotoxic Concentration IC50) was 1710 nM, the IC90 ([4]; Table 3, CCRF-CEM/VM-1) was 3570 nM and the IC50 ([4]; Table 14, CCRF-CEM/VM-1, read-out: Cytotoxic Concentration IC50) was 4050 nM. For the same compound, the IC90 ([4]; Table 14, CCRF-CEM/VM-1) was 11000 nM, the “Cytotoxic Concentration IC95” value ([4]; Table 3, CCRF-CEM/VM-1) was 4586 nM and the “ratio of IC50 to EQI-6 (in parentheses)” value [4, 12] was 902.1 ×. The “ratio of IC90 to EQI-6 (in parentheses)” value [4, 12] was 401.3 ×, the “ratio of IC95 to EQI-6 (in parentheses)” value [4, 12] was 303 × and the “Cytotoxic Concentration IC95” value ([4]; Table 14, CCRF-CEM/VM-1) was 15391 nM. It also gave an IC50 ([5]; Homo sapiens, SK-BR-3, Table 2, SK-Br-3 (Breast), read-out: concentration required to inhibit cell growth by 50% (IC50)) of 551 nM, an IC50 ([5]; Homo sapiens, SK-BR-3, Table 4, SK-Br-3, read-out: Cytotoxic Concentration IC50) of 551 nM and an IC90 ([5]; Homo sapiens, SK-BR-3, Table 4, SK-Br-3, read-out: Cytotoxic Concentration IC90) of 84100 nM. The “Cytotoxic Concentration IC95” value ([5]; Table 4, SK-Br-3) was 464700 nM, the “ratio of IC50 to EQI-6 (in parentheses)” value ([5]; Table 4, SK-Br-3, EQI-6 = (1)) was 16.2 × and the “ratio of IC90 to EQI-6 (in parentheses)” value ([5]; Table 4, SK-Br-3, EQI-6 = (1)) was 449.7 ×. The “ratio of IC95 to EQI-6 (in parentheses)” value ([5]; Table 4, SK-Br-3, EQI-6 = (1)) was 139.7 ×, the IC50 ([6]; Homo sapiens, 833K, Table 2, 833K (Testicular), read-out: concentration required to inhibit cell growth by 50% (IC50)) was 43 nM and the IC50 ([6]; Homo sapiens, 833K, Table 4, 833k, read-out: Cytotoxic Concentration IC50) was 43 nM. The IC90 ([6]; Homo sapiens, 833K, Table 4, 833k, read-out: Cytotoxic Concentration IC90) was 189 nM, the “Cytotoxic Concentration IC95” value ([6]; Table 4, 833k) was 311 nM and the “ratio of IC50 to EQI-6 (in parentheses)” value ([6]; Table 4, 833k, EQI-6 = (1)) was 6.14 ×. The “ratio of IC90 to EQI-6 (in parentheses)” value ([6]; Table 4, 833k, EQI-6 = (1)) was 7.56 ×, the “ratio of IC95 to EQI-6 (in parentheses)” value ([6]; Table 4, 833k, EQI-6 = (1)) was 7.97 × and the IC50 ([7]; Table 2, DC-3F, read-out: concentration required to inhibit cell growth by 50% (IC50)) was 8.8 nM. For the same compound, the IC50 ([7]; Table 4, DC-3F, read-out: Cytotoxic Concentration IC50) was 8.8 nM, the IC90 ([7]; Table 4, DC-3F) was 53 nM and the IC50 ([7]; Table 13, DC-3F, read-out: Cytotoxic Concentration IC50) was 4 nM. For the same compound, the IC90 ([7]; Table 13, DC-3F) was 17 nM, the “Cytotoxic Concentration IC95” value ([7]; Table 4, DC-3F) was 97.5 nM and the “ratio of IC50 to EQI-6 (in parentheses)” value ([7]; Table 4, DC-3F, EQI-6 = (1)) was 4.9 ×. For the same compound, the “ratio of IC90 to EQI-6 (in parentheses)” value ([7]; Table 4, DC-3F, EQI-6 = (1)) was 4.8 ×, the “ratio of IC95 to EQI-6 (in parentheses)” value ([7]; Table 4, DC-3F, EQI-6 = (1)) was 4.9 × and the “Cytotoxic Concentration IC95” value ([7]; Table 13, DC-3F) was 28 nM. The IC50 ([8]; Table 2, DC-3F/ADII (MDR/Actinomycin D), read-out: concentration required to inhibit cell growth by 50% (IC50)) was 71 nM, the IC50 ([8]; Table 4, DC-3F/ADII, read-out: Cytotoxic Concentration IC50) was 70.7 nM and the IC90 ([8]; Table 4, DC-3F/ADII) was 825 nM. The IC50 ([8]; Table 13, DC-3F/ADII, read-out: Cytotoxic Concentration IC50) was 33 nM, the IC90 ([8]; Table 13, DC-3F/ADII) was 180 nM and the “Cytotoxic Concentration IC95” value ([8]; Table 4, DC-3F/ADII) was 1902 nM. The “ratio of IC50 to EQI-6 (in parentheses)” value [8, 13] was 12 ×, the “ratio of IC90 to EQI-6 (in parentheses)” value [8, 13] was 53.6 × and the “ratio of IC95 to EQI-6 (in parentheses)” value [8, 13] was 88.9 ×. For the same compound, the “Cytotoxic Concentration IC95” value ([8]; Table 13, DC-3F/ADII) was 321 nM, the IC50 ([9]; Homo sapiens, read-out: Cytotoxic Concentration IC50) was 19 nM and the IC90 ([9]; Homo sapiens, read-out: Cytotoxic Concentration IC90) was 38 nM. For the same compound, the “Cytotoxic Concentration IC95” value [9] was 48 nM.
In the case of `COc1cc([C@@H]2c3cc4c(cc3[C@@H](O[C@@H]3O[C@@H]5CO[C@@H](c6cccs6)O[C@H]5[C@H](O)[C@H]3O)[C@H]3COC(=O)[C@H]23)OCO4)cc(OC)c1O` [VM26], the “resistance of cell line to VM26” value ([4]; CCRF/VM1 versus CCRF/CEM) is reported as 50 fold.
`CC[C@]1(O)C[C@@H]2CN(CCc3c([nH]c4ccccc34)[C@@](C(=O)OC)(c3cc4c(cc3OC)N(C)[C@H]3[C@@](O)(C(=O)OC)[C@H](OC(C)=O)[C@]5(CC)C=CCN6CC[C@]43[C@@H]65)C2)C1` [vinblastin] was tested, and the “resistance of cell line to vinblastin” value ([3]; CCRF/VBL100 versus CCRF/CEM) was 59 fold.
In the case of actinomycin D, the “resistance of cell line to actinomycin D” value ([8]; DC3F/ADII versus DC3F) is reported as 32 fold.
